Experimental findings from patent publication US20180334436A1 (VIIV HEALTHCARE UK LIMITED, priority 2015, published 2018) are described below.

By IC50 is commonly meant the concentration at which inhibition is half-maximal.

The assay has as its system HIV. Briefly: MT4 assay (anti-HIV activity). The class given is cell-based. The following applies: Human immunodeficiency virus 1, 96 h, antiviral HIV activity in HTLV-1 transformed cell line MT-4; luciferase read 96 hours later; 10 point dose response. As to the method:
Antiviral HIV activity and cytotoxicity values for compounds of the invention from Table 1 were measured in parallel in the HTLV-1 transformed cell line MT-4 based on the method previously described (Hazen et al., 2007, In vitro antiviral activity of the novel, tyrosyl-based human immunodeficiency virus (HIV) type 1 protease inhibitor brecanavir (GW640385) in combination with other antiretrovirals and against a panel of protease inhibitor-resistant HIV (Hazen et al., “In vitro antiviral activity of the novel, tyrosyl-based human immunodeficiency virus (HIV) type 1 protease inhibitor brecanavir (GW640385) in combination with other antiretrovirals and against a panel of protease inhibitor-resistant HIV”, Antimicrob. Agents Chemother. 2007, 51: 3147-3154; and Pauwels et al., “Sensitive and rapid assay on MT-4 cells for the detection of antiviral compounds against the AIDS virus”, J. of Virological Methods 1987, 16: 171-185).
Luciferase activity was measured 96 hours later by adding a cell titer glo (Promega, Madison, Wis.). Percent inhibition of cell protection data was plotted relative to no compound control. Under the same condition, cytotoxicity of the compounds was determined using cell titer Glo™ (Promega, Madison, Wis.). IC50s were determined from a 10 point dose response curve using 3-4-fold serial dilution for each compound, which spans a concentration range >1000 fold.
These values are plotted against the molar compound concentrations using the standard four parameter logistic equation:
y=((Vmax*x̂n)/(K̂n+x̂n))+Y2
Y2=minimum y n=slope factor
Vmax=maximum y x=compound concentration [M]
Regarding `Cc1c(-c2c(C)c3c(c(C)c2[C@H](OC(C)(C)C)C(=O)O)CCN(S(=O)(=O)C2CCCCC2)C3)cc(Cl)c2c1CCCO2` (atropisomer, axis not shown; (M)) [Example 88, (S)(M)-2-(tert-butoxy)-2-(7-(8-chloro-5-methylchroman-6-yl)-2-(cyclohexylsulfonyl)-5,8-dimethyl-1,2,3,4-tetrahydroisoquinolin-6-yl)acetic Acid], the half-maximal inhibitory concentration (IC50) is 36 nM. The same measure for `Cc1c(-c2c(C)c3c(c(C)c2[C@H](OC(C)(C)C)C(=O)O)CCN(C2CCCCC2)C3)cc(Cl)c2c1CCCO2` (atropisomer, axis not shown; (M)) [Example 89, (S)(M)-2-(tert-butoxy)-2-(7-(8-chloro-5-methylchroman-6-yl)-2-cyclohexyl-5,8-dimethyl-1,2,3,4-tetrahydroisoquinolin-6-yl)acetic Acid]: 12 nM; for `Cc1c(-c2c(C)c3c(c(C)c2[C@H](OC(C)(C)C)C(=O)O)CCN(S(=O)(=O)C2CCCCC2)C3)ccc2c1NCCO2` (atropisomer, axis not shown; (M)) [Example 95, (S)(M)-2-(tert-butoxy)-2-(2-(cyclohexylsulfonyl)-5,8-dimethyl-7-(5-methyl-3,4-dihydro-2H-benzo[b][1,4]oxazin-6-yl)-1,2,3,4-tetrahydroisoquinolin-6-yl)acetic Acid]: 9 nM; for `Cc1c(-c2c(C)c3c(c(C)c2[C@H](OC(C)(C)C)C(=O)O)CC(=O)N(Cc2ccccc2)C3)cc(F)c2c1CCCO2` (atropisomer, axis not shown; (M)) [Example 102, (S)(M)-2-(2-benzyl-7-(8-fluoro-5-methylchroman-6-yl)-5,8-dimethyl-3-oxo-1,2,3,4-tetrahydroisoquinolin-6-yl)-2-(tert-butoxy)acetic Acid]: 3 nM.

Take `Cc1ccc(-c2c(C)c3c(c(C)c2[C@H](OC(C)(C)C)C(=O)O)CCN(C2CCC[C@@H](C)C2)C3)cc1` (single isomer, unassigned) [Example 71]: the 50% inhibitory concentration (IC50) is 14 nM. As for `Cc1ccc(-c2c(C)c3c(c(C)c2C(OC(C)(C)C)C(=O)O)CN(Cc2cccc(F)c2)CC3)cc1` (stereo not drawn) [Example 1, 2-(tert-Butoxy)-2-(2-(3-fluorobenzyl)-5,8-dimethyl-6-(p-tolyl)-1,2,3,4-tetrahydroisoquinolin-7-yl)acetic Acid], the IC50 turned out to be 3250 nM. Take `Cc1ccc(-c2c(C)c3c(c(C)c2C(OC(C)(C)C)C(=O)O)CN(C2CCCCC2)CC3)cc1` (stereo not drawn) [Example 2, 2-(tert-Butoxy)-2-(2-cyclohexyl-5,8-dimethyl-6-(p-tolyl)-1,2,3,4-tetrahydroisoquinolin-7-yl)acetic Acid]: the 50% inhibitory concentration (IC50) was 1720 nM. The same measure for `Cc1ccc(-c2c(C)c3c(c(C)c2C(OC(C)(C)C)C(=O)O)CN(CC2CCCCC2)CC3)cc1` (stereo not drawn) [Example 3, 2-(tert-Butoxy)-2-(2-(cyclohexylmethyl)-5,8-dimethyl-6-(p-tolyl)-1,2,3,4-tetrahydroisoquinolin-7-yl)acetic Acid]: 3200 nM; for `Cc1ccc(-c2c(C)c3c(c(C)c2C(OC(C)(C)C)C(=O)O)CN(C(=O)C2CCCCC2)CC3)cc1` (stereo not drawn) [Example 4, 2-(tert-Butoxy)-2-(2-(cyclohexanecarbonyl)-5,8-dimethyl-6-(p-tolyl)-1,2,3,4-tetrahydroisoquinolin-7-yl)acetic Acid]: 323 nM. Take `Cc1ccc(-c2c(C)c3c(c(C)c2C(OC(C)(C)C)C(=O)O)CN(C(=O)C(=O)N2CCCCC2)CC3)cc1` (stereo not drawn) [Example 5, 2-(tert-Butoxy)-2-(5,8-dimethyl-2-(2-oxo-2-(piperidin-1-yl)acetyl)-6-(p-tolyl)-1,2,3,4-tetrahydroisoquinolin-7-yl)acetic Acid]: the half-maximal inhibitory concentration (IC50) is 157 nM.

`Cc1ccc(-c2c(C)c3c(c(C)c2C(OC(C)(C)C)C(=O)O)CN(C(=O)c2cccc(F)c2)CC3)cc1` (stereo not drawn) [Example 6]: the IC50 came to 347 nM. `Cc1ccc(-c2c(C)c3c(c(C)c2C(OC(C)(C)C)C(=O)O)CN(CC(=O)N2CCCCC2)CC3)cc1` (stereo not drawn) [Example 7, 2-(tert-Butoxy)-2-(5,8-dimethyl-2-(2-oxo-2-(piperidin-1-yl)ethyl)-6-(p-tolyl)-1,2,3,4-tetrahydroisoquinolin-7-yl)acetic Acid]: the IC50 worked out at 418 nM. The value for `Cc1ccc(-c2c(C)c3c(c(C)c2C(OC(C)(C)C)C(=O)O)CN(c2ccccc2)CC3)cc1` (stereo not drawn) [Example 8, 2-(tert-Butoxy)-2-(5,8-dimethyl-2-phenyl-6-(p-tolyl)-1,2,3,4-tetrahydroisoquinolin-7-yl)acetic Acid] was 6480 nM. The value for `Cc1ccc(-c2c(C)c3c(c(C)c2C(OC(C)(C)C)C(=O)O)CN(C(=O)N2CCCCC2)CC3)cc1` (stereo not drawn) [Example 9, 2-(tert-Butoxy)-2-(5,8-dimethyl-2-(piperidine-1-carbonyl)-6-(p-tolyl)-1,2,3,4-tetrahydroisoquinolin-7-yl)acetic Acid] was 38 nM; that for `Cc1ccc(-c2c(C)c3c(c(C)c2C(OC(C)(C)C)C(=O)O)CN(C(=O)NC2CCCCC2)CC3)cc1` (stereo not drawn) [Example 10, 2-(tert-Butoxy)-2-(2-(cyclohexylcarbamoyl)-5,8-dimethyl-6-(p-tolyl)-1,2,3,4-tetrahydroisoquinolin-7-yl)acetic Acid] was 1480 nM. Turning to `Cc1ccc(-c2c(C)c3c(c(C)c2C(OC(C)(C)C)C(=O)O)CN(S(=O)(=O)c2cccc(F)c2)CC3)cc1` (stereo not drawn) [Example 11, 2-(tert-Butoxy)-2-(2-((3-fluorophenyl)sulfonyl)-5,8-dimethyl-6-(p-tolyl)-1,2,3,4-tetrahydroisoquinolin-7-yl)acetic Acid], the IC50 was determined as 817 nM.

In the case of `Cc1ccc(-c2c(C)c3c(c(C)c2[C@H](OC(C)(C)C)C(=O)O)CN(C(=O)N2CCCCC2)CC3)cc1` [Example 12, (S)-2-(tert-Butoxy)-2-(5,8-dimethyl-2-(piperidine-1-carbonyl)-6-(p-tolyl)-1,2,3,4-tetrahydroisoquinolin-7-yl)acetic Acid], the IC50 amounted to 139 nM.

Take `Cc1ccc(-c2c(C)c3c(c(C)c2[C@H](OC(C)(C)C)C(=O)O)CN(C(=O)N2CCC(C)(C)CC2)CC3)cc1` [Example 13, (S)-2-(tert-Butoxy)-2-(2-(4,4-dimethylpiperidine-1-carbonyl)-5,8-dimethyl-6-(p-tolyl)-1,2,3,4-tetrahydroisoquinolin-7-yl)acetic Acid]: the IC50 stood at 129 nM. Regarding `Cc1ccc(-c2c(C)c3c(c(C)c2[C@H](OC(C)(C)C)C(=O)O)CN(C(=O)N2CCCC2)CC3)cc1` [Example 14, (S)-2-(tert-Butoxy)-2-(5,8-dimethyl-2-(pyrrolidine-1-carbonyl)-6-(p-tolyl)-1,2,3,4-tetrahydroisoquinolin-7-yl)acetic Acid], the IC50 stood at 1110 nM. The same measure for `Cc1ccc(-c2c(C)c3c(c(C)c2[C@H](OC(C)(C)C)C(=O)O)CN(S(=O)(=O)N2CCC(C)(C)CC2)CC3)cc1` [Example 15, (S)-2-(tert-Butoxy)-2-(2-((4,4-dimethylpiperidin-1-yl)sulfonyl)-5,8-dimethyl-6-(p-tolyl)-1,2,3,4-tetrahydroisoquinolin-7-yl)acetic Acid]: 113 nM.

For the compound `Cc1ccc(-c2c(C)c3c(c(C)c2[C@H](OC(C)(C)C)C(=O)O)CN(S(=O)(=O)N2CCCCC2)CC3)cc1` [Example 16, (S)-2-(tert-Butoxy)-2-(5,8-dimethyl-2-(piperidin-1-ylsulfonyl)-6-(p-tolyl)-1,2,3,4-tetrahydroisoquinolin-7-yl)acetic Acid], the IC50 came out at 34 nM.
